One assay has as its target rNav1.7 (Rattus norvegicus, UniProt O08562). The experiment in a line: cell-based. The conditions noted are these: for pIC50: PatchXpress, tonic block, rat Nav1.7, read-out: PX rNav1.7 Tonic IC50; for rNav1.7/hNav1.7: ratio of PX tonic IC50, rat Nav1.7 over human Nav1.7.
The next assay deals with mNav1.7 (Mus musculus, UniProt Q62205). The experiment in a line: cell-based. The conditions noted are these: for pIC50: PatchXpress, tonic block, mouse Nav1.7, read-out: PX mNav1.7 Tonic IC50; for mNav1.7/hNav1.7: ratio of PX tonic IC50, mouse Nav1.7 over human Nav1.7.
Sequence of mNav1.7 (Q62205 whole entry): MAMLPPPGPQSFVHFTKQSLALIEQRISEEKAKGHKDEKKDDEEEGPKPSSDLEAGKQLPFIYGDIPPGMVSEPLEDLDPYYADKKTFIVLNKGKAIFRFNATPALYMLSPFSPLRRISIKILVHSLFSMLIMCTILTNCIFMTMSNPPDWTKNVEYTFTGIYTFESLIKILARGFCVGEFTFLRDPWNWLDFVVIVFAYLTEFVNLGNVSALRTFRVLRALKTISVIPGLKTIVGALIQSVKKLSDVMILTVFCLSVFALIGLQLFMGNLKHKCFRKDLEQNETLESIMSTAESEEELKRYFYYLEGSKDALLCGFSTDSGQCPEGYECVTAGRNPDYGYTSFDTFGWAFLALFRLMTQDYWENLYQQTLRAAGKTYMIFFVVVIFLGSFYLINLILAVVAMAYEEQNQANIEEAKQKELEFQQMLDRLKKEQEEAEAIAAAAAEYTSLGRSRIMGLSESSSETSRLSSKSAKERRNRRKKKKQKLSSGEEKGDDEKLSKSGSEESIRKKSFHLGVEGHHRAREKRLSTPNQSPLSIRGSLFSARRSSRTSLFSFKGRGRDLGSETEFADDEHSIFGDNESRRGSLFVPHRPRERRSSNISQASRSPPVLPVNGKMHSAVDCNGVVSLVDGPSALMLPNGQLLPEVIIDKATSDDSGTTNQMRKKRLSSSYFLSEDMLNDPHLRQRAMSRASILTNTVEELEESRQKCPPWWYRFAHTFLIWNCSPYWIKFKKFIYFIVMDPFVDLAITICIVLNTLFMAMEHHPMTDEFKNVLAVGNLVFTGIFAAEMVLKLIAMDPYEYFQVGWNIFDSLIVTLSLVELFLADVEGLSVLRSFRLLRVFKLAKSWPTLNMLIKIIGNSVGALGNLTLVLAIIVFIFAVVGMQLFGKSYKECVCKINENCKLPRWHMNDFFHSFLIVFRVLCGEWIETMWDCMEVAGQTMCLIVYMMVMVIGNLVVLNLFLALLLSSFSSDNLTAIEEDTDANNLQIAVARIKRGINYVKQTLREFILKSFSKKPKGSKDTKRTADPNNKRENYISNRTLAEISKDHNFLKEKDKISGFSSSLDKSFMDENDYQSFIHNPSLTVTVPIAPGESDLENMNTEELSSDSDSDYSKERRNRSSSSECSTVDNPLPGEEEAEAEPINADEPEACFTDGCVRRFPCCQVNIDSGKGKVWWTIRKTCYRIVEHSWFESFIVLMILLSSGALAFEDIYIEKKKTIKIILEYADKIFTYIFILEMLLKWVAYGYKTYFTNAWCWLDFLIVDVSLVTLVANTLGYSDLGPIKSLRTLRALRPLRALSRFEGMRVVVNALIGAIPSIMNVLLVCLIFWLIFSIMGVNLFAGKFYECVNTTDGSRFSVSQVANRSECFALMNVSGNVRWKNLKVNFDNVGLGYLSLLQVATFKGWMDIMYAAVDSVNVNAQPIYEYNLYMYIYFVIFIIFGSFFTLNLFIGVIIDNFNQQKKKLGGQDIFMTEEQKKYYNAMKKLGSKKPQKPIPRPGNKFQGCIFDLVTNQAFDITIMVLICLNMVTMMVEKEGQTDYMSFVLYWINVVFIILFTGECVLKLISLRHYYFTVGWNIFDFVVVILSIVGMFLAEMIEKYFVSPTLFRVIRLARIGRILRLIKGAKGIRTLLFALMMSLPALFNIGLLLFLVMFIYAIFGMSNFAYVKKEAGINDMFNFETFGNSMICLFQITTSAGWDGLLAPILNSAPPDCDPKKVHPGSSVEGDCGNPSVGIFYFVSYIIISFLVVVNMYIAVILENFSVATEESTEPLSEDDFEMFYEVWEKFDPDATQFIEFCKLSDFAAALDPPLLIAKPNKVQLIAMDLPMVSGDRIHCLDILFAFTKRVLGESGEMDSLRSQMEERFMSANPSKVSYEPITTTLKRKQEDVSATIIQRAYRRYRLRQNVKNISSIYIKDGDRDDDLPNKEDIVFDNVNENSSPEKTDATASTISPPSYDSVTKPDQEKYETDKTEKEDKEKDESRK
The target in a further assay is hNav1.7 (Homo sapiens, UniProt Q15858). Put plainly: cell-based. It is filed as cell-based. The conditions noted are these: PatchXpress, tonic block, read-out: PX hNav1.7 Tonic IC50.
Assay [1] has as its system TTX-sensitive Nav channels in mouse DRG neuron.
The next assay concerns the target hNav1.6 (Homo sapiens, UniProt Q9UQD0). The experiment in a line: cell-based. The conditions noted are these: Table 15. It counts as cell-based.
The next assay addresses hNav1.4 (Homo sapiens, UniProt P35499). The experiment in a line: cell-based. It is filed as cell-based. The conditions noted are these: Table 12.

pIC50: −log10 of the molar value. Read-outs that look alike come from different tables or passages of the source.

As a reminder, the pIC50 is the IC50 on a negative log10 scale, so that one unit is a factor of ten.

Sequence of rNav1.7 (O08562 whole entry): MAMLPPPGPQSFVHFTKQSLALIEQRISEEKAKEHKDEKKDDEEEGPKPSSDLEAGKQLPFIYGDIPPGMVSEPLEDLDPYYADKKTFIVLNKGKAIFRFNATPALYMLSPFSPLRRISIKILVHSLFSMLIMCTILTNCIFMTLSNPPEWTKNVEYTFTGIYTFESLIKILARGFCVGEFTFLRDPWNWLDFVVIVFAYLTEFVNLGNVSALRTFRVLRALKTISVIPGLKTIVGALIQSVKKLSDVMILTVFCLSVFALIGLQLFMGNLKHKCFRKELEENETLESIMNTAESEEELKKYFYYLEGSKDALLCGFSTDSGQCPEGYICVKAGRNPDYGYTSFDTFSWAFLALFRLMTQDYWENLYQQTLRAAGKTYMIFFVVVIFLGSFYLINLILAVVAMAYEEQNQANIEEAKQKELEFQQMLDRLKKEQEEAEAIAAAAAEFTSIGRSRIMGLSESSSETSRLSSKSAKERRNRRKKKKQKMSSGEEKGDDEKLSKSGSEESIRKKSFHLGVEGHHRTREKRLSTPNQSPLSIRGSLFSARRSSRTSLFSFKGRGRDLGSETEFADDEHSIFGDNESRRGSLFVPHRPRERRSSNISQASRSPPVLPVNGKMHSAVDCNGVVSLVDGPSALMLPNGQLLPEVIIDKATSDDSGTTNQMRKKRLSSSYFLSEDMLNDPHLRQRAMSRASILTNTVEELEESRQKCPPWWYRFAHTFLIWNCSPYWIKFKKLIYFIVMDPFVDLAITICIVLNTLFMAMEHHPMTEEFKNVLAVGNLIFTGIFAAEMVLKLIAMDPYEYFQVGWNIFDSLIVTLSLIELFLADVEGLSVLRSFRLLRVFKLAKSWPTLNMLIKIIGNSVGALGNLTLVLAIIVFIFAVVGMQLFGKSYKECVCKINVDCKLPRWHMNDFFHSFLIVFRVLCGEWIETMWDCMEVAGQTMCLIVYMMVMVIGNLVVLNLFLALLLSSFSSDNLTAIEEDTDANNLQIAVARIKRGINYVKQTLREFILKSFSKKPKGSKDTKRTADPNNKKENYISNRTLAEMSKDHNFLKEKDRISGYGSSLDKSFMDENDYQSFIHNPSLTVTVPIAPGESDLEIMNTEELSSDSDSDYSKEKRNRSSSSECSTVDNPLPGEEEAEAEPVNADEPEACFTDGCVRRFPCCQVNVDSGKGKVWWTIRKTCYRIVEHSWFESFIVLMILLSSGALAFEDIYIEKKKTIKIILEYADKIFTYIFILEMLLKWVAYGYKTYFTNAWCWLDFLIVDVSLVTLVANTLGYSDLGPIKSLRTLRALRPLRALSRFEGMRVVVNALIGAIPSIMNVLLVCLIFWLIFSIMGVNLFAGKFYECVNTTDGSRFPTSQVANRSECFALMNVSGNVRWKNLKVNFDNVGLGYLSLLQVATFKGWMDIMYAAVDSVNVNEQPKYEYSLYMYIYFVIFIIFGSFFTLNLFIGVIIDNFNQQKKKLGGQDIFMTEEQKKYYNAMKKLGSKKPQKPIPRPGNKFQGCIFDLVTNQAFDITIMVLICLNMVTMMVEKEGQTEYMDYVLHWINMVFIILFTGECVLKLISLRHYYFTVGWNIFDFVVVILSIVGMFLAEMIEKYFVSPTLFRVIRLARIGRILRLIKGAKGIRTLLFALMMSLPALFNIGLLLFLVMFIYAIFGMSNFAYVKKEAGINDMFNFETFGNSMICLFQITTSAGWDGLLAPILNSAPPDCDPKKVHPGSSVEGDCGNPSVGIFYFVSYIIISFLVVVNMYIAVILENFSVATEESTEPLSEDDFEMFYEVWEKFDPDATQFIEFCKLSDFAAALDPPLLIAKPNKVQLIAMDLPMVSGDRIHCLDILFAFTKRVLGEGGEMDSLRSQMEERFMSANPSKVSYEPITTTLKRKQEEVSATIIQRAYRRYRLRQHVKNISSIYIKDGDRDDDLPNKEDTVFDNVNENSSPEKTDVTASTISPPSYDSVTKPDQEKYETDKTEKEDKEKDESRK

Take `C#CC[C@H](NC(=O)[C@@H](N)CCC(=O)O)C(=O)N[C@H]1CSSC[C@@H]2NC(=O)[C@@H]3CSSC[C@@H](C(=O)N[C@@H](CCCNC(=N)N)C(=O)N[C@@H](CCCCN)C(=O)N[C@@H](CCC(=O)O)C(=O)N[C@H](C(N)=O)[C@@H](C)CC)NC(=O)[C@H](Cc4c[nH]c5ccccc45)NC(=O)[C@H](CC(C)C)NC(=O)[C@H](CCCCN)NC(=O)[C@H](CSSC[C@H](NC(=O)[C@H]([C@@H](C)O)NC(=O)[C@H](Cc4c[nH]c5ccccc45)NC(=O)[C@H](CCCC)NC(=O)[C@H](Cc4c[nH]c5ccccc45)NC(=O)[C@H](CCCCN)NC(=O)[C@H](CCC(N)=O)NC1=O)C(=O)N[C@@H](CC(=O)O)C(=O)N[C@@H](CO)C(=O)N[C@@H](CCCCN)C(=O)N[C@@H](CCCNC(=N)N)C(=O)N[C@@H](CCC(=O)O)C(=O)N3)NC(=O)[C@H](CCCNC(=N)N)NC(=O)[C@H](CC(C)C)NC(=O)CNC(=O)[C@H](CCC(=O)O)NC2=O` [Glu-[Pra1; Nle6; Glu14, 28]JzTx-V(1-29)]: at rNav1.7, the pIC50 is 8.48 and the rNav1.7/hNav1.7 is on record as 5.94. For the same compound, on mNav1.7, the pIC50 is 7.79 and the mNav1.7/hNav1.7 was found to be 28.63.

For `C#CC[C@H](N)C(=O)N[C@@H](Cc1ccc(O)cc1)C(=O)N[C@H]1CSSC[C@@H]2NC(=O)[C@@H]3CSSC[C@@H](C(=O)N[C@@H](CCCNC(=N)N)C(=O)N[C@@H](CCCCN)C(=O)N[C@@H](CCC(=O)O)C(=O)N[C@H](C(N)=O)[C@@H](C)CC)NC(=O)[C@H](Cc4c[nH]c5ccc(Br)cc45)NC(=O)[C@H](CC(C)C)NC(=O)[C@H](CCCCN)NC(=O)[C@H](CSSC[C@H](NC(=O)[C@H]([C@@H](C)O)NC(=O)[C@H](Cc4c[nH]c5ccccc45)NC(=O)[C@H](CCCC)NC(=O)[C@H](Cc4c[nH]c5ccccc45)NC(=O)[C@H](CCCCN)NC(=O)[C@H](CCC(N)=O)NC1=O)C(=O)N[C@@H](CC(=O)O)C(=O)N[C@@H](CO)C(=O)N[C@@H](CCCCN)C(=O)N[C@@H](CCCNC(=N)N)C(=O)N[C@@H](C)C(=O)N3)NC(=O)[C@H](CCCNC(=N)N)NC(=O)[C@H](CC(C)C)NC(=O)CNC(=O)[C@H](CCC(=O)O)NC2=O` [Pra-[Nle6; 5-BrW24; Glu28]JzTx-V(1-29)], on rNav1.7, the pIC50 is 8.61 and the rNav1.7/hNav1.7 is 62.26. Moreover, at mNav1.7, the pIC50 is 9.04 and the mNav1.7/hNav1.7 amounted to 23.34.

Turning to `C#CC[C@H](N)C(=O)N[C@@H](Cc1ccc(O)cc1)C(=O)N[C@H]1CSSC[C@@H]2NC(=O)[C@@H]3CSSC[C@@H](C(=O)N[C@@H](CCCNC(=N)N)C(=O)N[C@@H](CCCCN)C(=O)N[C@@H](CCC(=O)O)C(=O)N[C@H](C(N)=O)[C@@H](C)CC)NC(=O)[C@H](Cc4c[nH]c5ccccc45)NC(=O)[C@H](C4CCCCC4)NC(=O)[C@H](CCCCN)NC(=O)[C@H](CSSC[C@H](NC(=O)[C@H]([C@@H](C)O)NC(=O)[C@H](Cc4c[nH]c5ccccc45)NC(=O)[C@H](CCCC)NC(=O)[C@H](Cc4c[nH]c5ccccc45)NC(=O)[C@H](CCCCN)NC(=O)[C@H](CCC(N)=O)NC1=O)C(=O)N[C@@H](CC(=O)O)C(=O)N[C@@H](CO)C(=O)N[C@@H](CCCCN)C(=O)N[C@@H](CCCNC(=N)N)C(=O)N[C@@H](C)C(=O)N3)NC(=O)[C@H](CCCNC(=N)N)NC(=O)[C@H](CC(C)C)NC(=O)CNC(=O)[C@H](CCC(=O)O)NC2=O` [Pra-[Nle6; Chg23; Glu28]JzTx-V(1-29)], on rNav1.7, the negative logarithm of the IC50 (pIC50) was 8.49 and the rNav1.7/hNav1.7 is on record as 6.68. Moreover, on mNav1.7, the pIC50 was 9.05 and the mNav1.7/hNav1.7 is reported as 1.81.

On to `C#CC[C@H](N)C(=O)N[C@@H](Cc1ccc(O)cc1)C(=O)N[C@H]1CSSC[C@@H]2NC(=O)[C@@H]3CSSC[C@@H](C(=O)N[C@@H](CCCNC(=N)N)C(=O)N[C@@H](CCCCN)C(=O)N[C@@H](CCC(=O)O)C(=O)N[C@@H](Cc4ccccc4)C(N)=O)NC(=O)[C@H](Cc4c[nH]c5ccccc45)NC(=O)[C@H](CC(C)C)NC(=O)[C@H](CCCCN)NC(=O)[C@H](CSSC[C@H](NC(=O)[C@H]([C@@H](C)O)NC(=O)[C@H](Cc4c[nH]c5ccccc45)NC(=O)[C@H](CCCC)NC(=O)[C@H](Cc4c[nH]c5ccccc45)NC(=O)[C@H](CCCCN)NC(=O)[C@H](CCC(N)=O)NC1=O)C(=O)N[C@@H](CC(=O)O)C(=O)N[C@@H](CO)C(=O)N[C@@H](CCCCN)C(=O)N[C@@H](CCCNC(=N)N)C(=O)N[C@@H](C)C(=O)N3)NC(=O)[C@H](CCCNC(=N)N)NC(=O)[C@H](CC(C)C)NC(=O)CNC(=O)[C@H](CCC(=O)O)NC2=O` [Pra-[Nle6; Glu28; Phe29]JzTx-V(1-29)], for which, at rNav1.7, the pIC50 is 9.53 and the rNav1.7/hNav1.7 is recorded as 0.76. Further, at mNav1.7, the pIC50 was 8.46 and the mNav1.7/hNav1.7 is listed as 8.90.

On to `C#CC[C@H](N)C(=O)N[C@@H](Cc1ccc(O)cc1)C(=O)N[C@H]1CSSC[C@@H]2NC(=O)[C@@H]3CSSC[C@@H](C(=O)N[C@@H](CCCNC(=N)N)C(=O)N[C@@H](CCCCN)C(=O)N[C@@H](CCC(=O)O)C(=O)N[C@@H](Cc4c[nH]c5ccccc45)C(N)=O)NC(=O)[C@H](Cc4c[nH]c5ccccc45)NC(=O)[C@H](CC(C)C)NC(=O)[C@H](CCCCN)NC(=O)[C@H](CSSC[C@H](NC(=O)[C@H]([C@@H](C)O)NC(=O)[C@H](Cc4c[nH]c5ccccc45)NC(=O)[C@H](CCCC)NC(=O)[C@H](Cc4c[nH]c5ccccc45)NC(=O)[C@H](CCCCN)NC(=O)[C@H](CCC(N)=O)NC1=O)C(=O)N[C@@H](CC(=O)O)C(=O)N[C@@H](CO)C(=O)N[C@@H](CCCCN)C(=O)N[C@@H](CCCNC(=N)N)C(=O)N[C@@H](C)C(=O)N3)NC(=O)[C@H](CCCNC(=N)N)NC(=O)[C@H](CC(C)C)NC(=O)CNC(=O)[C@H](CCC(=O)O)NC2=O` [Pra-[Nle6; Glu28; Trp29]JzTx-V(1-29)], for which the pIC50 at hNav1.7 (human Nav1.7) is 9.45. Besides, at rNav1.7, the pIC50 is 10.01 and the rNav1.7/hNav1.7 was determined as 0.27. For the same compound, on mNav1.7, the pIC50 was 8.51 and the mNav1.7/hNav1.7 amounted to 8.82.

As for `CC[C@H](C)[C@H](NC(=O)[C@H](CCCCN)NC(=O)[C@H](CCCNC(=N)N)NC(=O)[C@@H]1CSSC[C@@H]2NC(=O)[C@H](C)NC(=O)[C@H](CCCNC(=N)N)NC(=O)[C@H](CCCCN)NC(=O)[C@H](CO)NC(=O)[C@H](CC(=O)O)NC(=O)[C@@H]3CSSC[C@H](NC(=O)[C@H](CCC(=O)O)NC(=O)[C@H](CC(C)C)NC(=O)CNC(=O)[C@H](CCC(=O)O)NC(=O)[C@H](CSSC[C@H](NC(=O)[C@@H](N)Cc4ccc(O)cc4)C(=O)N[C@@H](CCC(N)=O)C(=O)N[C@@H](CCCCN)C(=O)N[C@@H](Cc4c[nH]c5ccccc45)C(=O)N[C@@H](CCSC)C(=O)N[C@@H](Cc4c[nH]c5ccccc45)C(=O)N[C@@H]([C@@H](C)O)C(=O)N3)NC2=O)C(=O)N[C@@H](CCCCN)C(=O)N[C@@H](CC(C)C)C(=O)N[C@@H](Cc2c[nH]c3ccccc23)C(=O)N1)C(=O)N[C@@H](Cc1c[nH]c2ccccc12)C(N)=O` [[Glu20, Trp29]JzTx-V], at rNav1.7, the pIC50 is 8.89 and the rNav1.7/hNav1.7 worked out at 0.82. Besides, on mNav1.7, the pIC50 is 8.29 and the mNav1.7/hNav1.7 is given as 3.20.

In the case of `C#CC[C@@H]1NC(=O)[C@H](CC(=O)O)NC(=O)[C@@H]2CSSC[C@@H]3NC(=O)[C@H](CCCNC(=N)N)NC(=O)[C@H](CC(C)C)NC(=O)CNC(=O)[C@H](CCC(=O)O)NC(=O)[C@H](CSSC[C@H](NC(=O)[C@@H](N)Cc4ccc(O)cc4)C(=O)N[C@@H](CCC(N)=O)C(=O)N[C@@H](CCCCN)C(=O)N[C@@H](Cc4c[nH]c5ccccc45)C(=O)N[C@@H](CCCC)C(=O)N[C@@H](Cc4c[nH]c5ccccc45)C(=O)N[C@@H]([C@@H](C)O)C(=O)N2)NC(=O)[C@H](CSSC[C@@H](C(=O)N[C@@H](CCCNC(=N)N)C(=O)N[C@@H](CCCCN)C(=O)N[C@@H](CCC(=O)O)C(=O)N[C@H](C(N)=O)[C@@H](C)CC)NC(=O)[C@H](Cc2c[nH]c4ccccc24)NC(=O)[C@H](CC(C)C)NC(=O)[C@H](CCCCN)NC3=O)NC(=O)[C@H](C)NC(=O)[C@H](CCCNC(=N)N)NC(=O)[C@H](CCCCN)NC1=O` [[Nle6; Pra11; Glu28]JzTx-V(1-29)], at hNav1.7 (human Nav1.7), the negative-log IC50 (pIC50) is 9.33. Further, on rNav1.7, the pIC50 is 8.42 and the rNav1.7/hNav1.7 is on record as 8.10. On mNav1.7, the pIC50 is 8.43 and the mNav1.7/hNav1.7 worked out at 7.81.

Regarding `C#CC[C@H](N)C(=O)N[C@@H](Cc1ccc(O)cc1)C(=O)N[C@H]1CSSC[C@@H]2NC(=O)[C@@H]3CSSC[C@@H](C(=O)N[C@@H](CCCNC(=N)N)C(=O)N[C@@H](CCCCN)C(=O)N[C@@H](CCC(=O)O)C(=O)N[C@H](C(N)=O)[C@@H](C)CC)NC(=O)[C@H](Cc4c[nH]c5ccccc45)NC(=O)[C@H](CC(C)C)NC(=O)[C@H](CCCCN)NC(=O)[C@H](CSSC[C@H](NC(=O)[C@H]([C@@H](C)O)NC(=O)[C@H](Cc4c[nH]c5ccccc45)NC(=O)[C@H](CCCC)NC(=O)[C@H](Cc4c[nH]c5ccccc45)NC(=O)[C@H](CCCCN)NC(=O)[C@H](CCC(N)=O)NC1=O)C(=O)N[C@@H](CC(=O)O)C(=O)N[C@@H](CO)C(=O)N[C@@H](CCCCN)C(=O)N[C@@H](CCCNC(=N)N)C(=O)N[C@@H](CCC(=O)O)C(=O)N3)NC(=O)[C@H](CCCNC(=N)N)NC(=O)[C@H](CC(C)C)NC(=O)CNC(=O)[C@H](CCC(=O)O)NC2=O` [compound 717], the negative-log IC50 (pIC50) in assay [1] is 7.00; on hNav1.7 (Table 12), 9.01; on hNav1.6 (read-out: PX hNav1.6 Tonic IC50), 5.60; at hNav1.4 (PatchXpress, tonic block, read-out: PX hNav1.4 Tonic IC50) it was 6.49. For the same compound, in assay [1] (1000 nM, C57 Black 6 mouse DRG neuron), the “block of TTX-sensitive Nav current” value is listed as “approximately 90%”. Besides, the Nav1.6/Nav1.7 on hNav1.6 (ratio of PX tonic IC50 values) is listed as 2558. For the same compound, at hNav1.4 (ratio of PX tonic IC50 values), the Nav1.4/Nav1.7 was found to be 333.

Values taken from patent US10344060B2 (priority 2013, dated 2019).
